Read-outs that look alike come from different tables or passages of the source. Blank lines part the entries; values can stand above or below the compound they belong to.
Key:
Format in all cases: cell-based
[1] = tested on: Pectobacterium carotovorum subsp. carotovorum MI; experiment: Bactericidal activity, agar diffusion, P. carotovorum; conditions: Pectobacterium carotovorum, 2 mM/L
Description: (§1) Plant pathogenic bacterial strains Micrococcus luteus B-109, Pectobacterium atrosepticum 1043, Pectobacterium carotovorum subsp. carotovorum MI, Pseudomonas fluorescens EL-2.1, and Xanthomonas campestris B-610 and fungal strain Fusarium oxysporum IBPPM 543 were obtained from the specialized scientific culture collection of IBPPM RAS (WFCC no. 975, WDCM no. 1021) (CM IBPPM). Pathogenic fungus Phytophthora cactorum VKM F-985 provided by the All-Russian Collection of Microorganisms (VKM) and deposited at A.E. Favorsky Irkutsk Institute of Chemistry, SB RAS, was also used as test organism. Bacteria M. luteus, P. carotovorum subsp. carotovorum, P. atrosepticum, and Ps. fluorescens were grown in meat-peptone medium (BP), and X. campestris was grown in the medium with glucose, yeast extract, and calcium carbonate (GYCa). Solid media contained Bacto agar (18 g/L); pH was adjusted to 7.2-7.4. All bacterial cultures were grown at 28°C. The mycelial cultures of F. oxysporum and P. cactorum were grown on a glucose-peptone-yeast (GPY) nutrient medium at 27 °C. For inoculum preparation, both fungal strains were initially grown on the agar GPY in Petri dishes and then transferred into the seed medium by punching out 5 mm of the agar plate culture with a self-designed cutter.
(§2) Antibacterial and antifungal activities of the compounds were explored using the agar diffusion method and the technique of a phytopathogen radial growth inhibition. Method of diffusion in agar (measuring the diameter of growth inhibition zones) was used for determining the bactericidal activity. The 6-mm wells were made in ager medium (GYCa for Xanthomonas campestris or BP for other bacteria). Bacterial suspensions were distributed over the agar surface, and the tested compound's solution (150 μl) was added to each well. The width of growth inhibition zones around the wells was determined after incubation for 36-40 h.
(§3) The solutions of tested compounds were prepared with a concentration of 2 mmol/l (stock solution). For comparison, test compounds were also commonly applied disinfecting agents and antibiotics.

[2] = tested on: Pseudomonas fluorescens EL-2.1; experiment: Bactericidal activity, agar diffusion, Ps. fluorescens; conditions: Pseudomonas fluorescens, EL2.1, 2 mM/L
Description: as §1, §2, §3

[3] = tested on: Pectobacterium atrosepticum 1043; experiment: Bactericidal activity, agar diffusion, P. atrosepticum; conditions: Pectobacterium atrosepticum, 1043, 2 mM/L
Description: as §1, §2, §3

[4] = tested on: Micrococcus luteus B-109; experiment: Bactericidal activity, agar diffusion, M. luteus; conditions: Micrococcus luteus, B109, 2 mM/L
Description: as §1, §2, §3

[5] = tested on: Fusarium oxysporum IBPPM 543; experiment: Fungicidal activity, radial growth inhibition, F. oxysporum; conditions: for EC50: Fusarium oxysporum, IBPPM543, 168 h, day 7, EC50 = 50C/I, read-out: EC50, μg/mL at day 7
Description: as §1
For the fungicidal activity analysis, radial growth (colony diameters) of the fungi on a solid medium in the absence and in the presence of the compounds 3a,c-g solutions at various concentrations were compared. The method consisted of the following: sterile, melted and then cooled to about 60°C GPY agar medium (20.0 ml) was mixed with the precisely measured volumes of the solutions under question, and poured into a sterile Petri dish (90 mm i.d.). After solidification of GPY agar, the media were inoculated by the fungus using 10-day-old cultures of F. oxysporum or P. cactorum. The inoculation was done by transferring a 5-mm (i.d.) GPY-agar block covered with mycelium to the center of the Petri dish followed by incubation in a thermostat at 27°C. The fungicidal effect was scored by the size of mycelium colony on a Petri dish compared to the control without fungicidal admixtures to GPY agar. Each treatment was performed in at least four replicates in two independent experiments. The observation period ended when the control Petri dish was filled with mycelium (usually after 12 days). The inhibition of the phytopathogen colony growth by the compounds 3a,c-g or fludioxonil solutions was calculated as a percentage by which the mycelium radial propagation was decreased compared to the unaffected control, the latter was taken as 100 % of growth (or zero percent of inhibition). The EC50 value was calculated as the compound concentration at which the radial growth of the fungus colony was decreased by 50 % relative to the non-fungicidal control, according to the formula EC50 = 50C/I based on the approach developed e.g., in [34, 35].
as §3

[6] = tested on: Candida albicans ATCC 10231; experiment: Antimicrobial activity, serial dilution (MIC/MBC), Ca; conditions: ATCC10231
Description: The antimicrobial activity of the test compounds was determined by the serial dilution technique in Muller Hinton Broth 2 and in Sabouradu broth for fungi. The cultures used for testing included Gram-positive bacteria: Staphylococcus aureus ATCC 6538P FDA 209P, Bacillus cereus ATCC 10702 NCTC 8035, Enterococcus faecalis ATCC 29212; Gram-negative bacteria: Escherichia coli ATCC 25922, Pseudomonas aeruginosa ATCC 9027, and fungi: Trichophyton mentagrophytes var. gypseum 1773, and Candida albicans ATCC 10231; methicillin-resistant strains of S. aureus (MRSA) was obtained from hospital patients with chronic tonsillitis in the Republican Clinical Hospital (Kazan, Russia). The bacterial load was 3.0 × 10^5 cfu/ml. The fungi load was 2.0 × 10^3 cfu/ml. The results were recorded every 24 h for 5-7 days. Cultures were incubated at 37 °C. The experiment was repeated three times. […] The minimum inhibitory concentration (MIC) was defined as the minimum concentration of a compound that inhibits the growth of the corresponding test microorganism. The growth of bacteria, as well as the absence of the growth due to the bacteriostatic action of compounds, were recorded.
Synthesized compounds were further evaluated for antimicrobial activity against test microorganisms: Staphylococcus aureus ATCC 209p (Sa), Bacillus cereus ATCC 8035 (Bc), Escherichia coli CDC F-50 (Ec), Enterococcus faecalis (Ef), Pseudomonas aeruginosa ATCC 9027, Aspergillus niger BKMF-1119, Trichophyton mentagrophytes var. gypseum 1773, and Candida albicans 855-653 including methicillin-resistant strains of S. aureus (MRSA 1 and MRSA 2). The minimum inhibitory (MIC) and minimum bactericidal (MBC) concentrations of ammonium salts were determined against these pathogens (Table 1). Due to the lack of activity of compounds 3a-g against Gram-negative bacterial strains and some fungi, the corresponding data are not shown.

[7] = 150 μl per well, 36-40 h, read-out: width of the inhibition zone
[8] = read-out: Inhibition zone width (mm), not less

MIC [6]: > 500 µM
Structure (SMILES): CC[N+](CC)(CC)CC(=O)N/N=C1\C(=O)N(Cc2cc(C(C)(C)C)c(O)c(C(C)(C)C)c2)c2c(Br)cc(Cl)cc21 [Compound 3g, 2-(2-(1-(3,5-Di-tert-butyl-4-hydroxybenzyl)-5-chloro-7-bromo-2-oxoindolin-3-ylidene)hydrazinyl)-N,N,N-triethyl-2-oxoethanammonium bromide]
zone of inhibition at 2000 µM [1, 7]: 9 mm
zone of inhibition at 2000 µM [1, 8]: ≥ 9 mm
zone of inhibition at 2000 µM [2, 7]: 8.5 mm
zone of inhibition at 2000 µM [2, 8]: ≥ 8 mm
zone of inhibition at 2000 µM [3, 7]: 9 mm
zone of inhibition at 2000 µM [3, 8]: ≥ 9 mm
zone of inhibition at 2000 µM [4, 7]: 7 mm
Inhibition value, I (%) ([5]; C 7.15 μg/mL, age of the fungus 3 days): 0%
Inhibition value, I (%) ([5]; C 7.15 μg/mL, age of the fungus 5 days): 4%
Inhibition value, I (%) ([5]; C 7.15 μg/mL, age of the fungus 7 days): 5%
Inhibition value, I (%) ([5]; C 7.15 μg/mL, age of the fungus 9 days): 4%
Inhibition value, I (%) ([5]; C 14.30 μg/mL, age of the fungus 3 days): 9%
Inhibition value, I (%) ([5]; C 14.30 μg/mL, age of the fungus 5 days): 4%
Inhibition value, I (%) ([5]; C 14.30 μg/mL, age of the fungus 7 days): 11%
Inhibition value, I (%) ([5]; C 14.30 μg/mL, age of the fungus 9 days): 5%
Inhibition value, I (%) ([5]; C 28.60 μg/mL, age of the fungus 3 days): 11%
Inhibition value, I (%) ([5]; C 28.60 μg/mL, age of the fungus 5 days): 7%
Inhibition value, I (%) ([5]; C 28.60 μg/mL, age of the fungus 7 days): 26%
Inhibition value, I (%) ([5]; C 28.60 μg/mL, age of the fungus 9 days): 10%
Inhibition value, I (%) ([5]; C 42.90 μg/mL, age of the fungus 3 days): 31%
Inhibition value, I (%) ([5]; C 42.90 μg/mL, age of the fungus 5 days): 27%
Inhibition value, I (%) ([5]; C 42.90 μg/mL, age of the fungus 7 days): 32%
Inhibition value, I (%) ([5]; C 42.90 μg/mL, age of the fungus 9 days): 13%
EC50 [5]: 55 µg/mL
MBC [6]: > 500 µM

MIC [6]: 198 ± 15.5 µM
Structure (SMILES): CC[N+](CC)(CC)CC(=O)N/N=C1\C(=O)N(Cc2cc(C(C)(C)C)c(O)c(C(C)(C)C)c2)c2c1ccc(C)c2C [Compound 3d, 2-(2-(1-(3,5-Di-tert-butyl-4-hydroxybenzyl)-6,7-dimethyl-2-oxoindolin-3-ylidene)hydrazinyl)-N,N,N-triethyl-2-oxoethanammonium bromide]
zone of inhibition at 2000 µM [1, 7]: 8 mm
zone of inhibition at 2000 µM [1, 8]: ≥ 8 mm
zone of inhibition at 2000 µM [2, 7]: 9 mm
zone of inhibition at 2000 µM [2, 8]: ≥ 9 mm
zone of inhibition at 2000 µM [3, 7]: 8 mm
zone of inhibition at 2000 µM [3, 8]: ≥ 8 mm
zone of inhibition at 2000 µM [4, 7]: 8 mm
zone of inhibition at 2000 µM [4, 8]: ≥ 8 mm
Inhibition value, I (%) ([5]; C 6.30 μg/mL, age of the fungus 3 days): 0%
Inhibition value, I (%) ([5]; C 6.30 μg/mL, age of the fungus 5 days): 5%
Inhibition value, I (%) ([5]; C 6.30 μg/mL, age of the fungus 7 days): 5%
Inhibition value, I (%) ([5]; C 6.30 μg/mL, age of the fungus 9 days): 0%
Inhibition value, I (%) ([5]; C 12.60 μg/mL, age of the fungus 3 days): 8%
Inhibition value, I (%) ([5]; C 12.60 μg/mL, age of the fungus 5 days): 12%
Inhibition value, I (%) ([5]; C 12.60 μg/mL, age of the fungus 7 days): 13%
Inhibition value, I (%) ([5]; C 12.60 μg/mL, age of the fungus 9 days): 2%
Inhibition value, I (%) ([5]; C 25.20 μg/mL, age of the fungus 3 days): 17%
Inhibition value, I (%) ([5]; C 25.20 μg/mL, age of the fungus 5 days): 15%
Inhibition value, I (%) ([5]; C 25.20 μg/mL, age of the fungus 7 days): 20%
Inhibition value, I (%) ([5]; C 25.20 μg/mL, age of the fungus 9 days): 8%
Inhibition value, I (%) ([5]; C 37.80 μg/mL, age of the fungus 3 days): 22%
Inhibition value, I (%) ([5]; C 37.80 μg/mL, age of the fungus 5 days): 18%
Inhibition value, I (%) ([5]; C 37.80 μg/mL, age of the fungus 7 days): 24%
Inhibition value, I (%) ([5]; C 37.80 μg/mL, age of the fungus 9 days): 9%
EC50 [5]: 48.5 µg/mL
MBC [6]: > 500 µM

MIC [6]: > 500 µM
Structure (SMILES): CC[N+](CC)(CC)CC(=O)N/N=C1\C(=O)N(Cc2cc(C(C)(C)C)c(O)c(C(C)(C)C)c2)c2cccc(Br)c21 [Compound 3e, 2-(2-(1-(3,5-Di-tert-butyl-4-hydroxybenzyl)-4-bromo-2-oxoindolin-3-ylidene)hydrazinyl)-N,N,N-triethyl-2-oxoethanammonium bromide]
zone of inhibition at 2000 µM [1, 7]: 10 mm
zone of inhibition at 2000 µM [1, 8]: ≥ 10 mm
zone of inhibition at 2000 µM [2, 7]: 9 mm
zone of inhibition at 2000 µM [2, 8]: ≥ 9 mm
zone of inhibition at 2000 µM [3, 7]: 15 mm
zone of inhibition at 2000 µM [3, 8]: ≥ 15 mm
zone of inhibition at 2000 µM [4, 7]: 13 mm
zone of inhibition at 2000 µM [4, 8]: ≥ 13 mm
Inhibition value, I (%) ([5]; C 6.81 μg/mL, age of the fungus 3 days): 11%
Inhibition value, I (%) ([5]; C 6.81 μg/mL, age of the fungus 5 days): 13%
Inhibition value, I (%) ([5]; C 6.81 μg/mL, age of the fungus 7 days): 19%
Inhibition value, I (%) ([5]; C 6.81 μg/mL, age of the fungus 9 days): 6%
Inhibition value, I (%) ([5]; C 13.62 μg/mL, age of the fungus 3 days): 14%
Inhibition value, I (%) ([5]; C 13.62 μg/mL, age of the fungus 5 days): 18%
Inhibition value, I (%) ([5]; C 13.62 μg/mL, age of the fungus 7 days): 22%
Inhibition value, I (%) ([5]; C 13.62 μg/mL, age of the fungus 9 days): 9%
Inhibition value, I (%) ([5]; C 27.24 μg/mL, age of the fungus 3 days): 19%
Inhibition value, I (%) ([5]; C 27.24 μg/mL, age of the fungus 5 days): 19%
Inhibition value, I (%) ([5]; C 27.24 μg/mL, age of the fungus 7 days): 25%
Inhibition value, I (%) ([5]; C 27.24 μg/mL, age of the fungus 9 days): 20%
Inhibition value, I (%) ([5]; C 40.86 μg/mL, age of the fungus 3 days): 40%
Inhibition value, I (%) ([5]; C 40.86 μg/mL, age of the fungus 5 days): 37%
Inhibition value, I (%) ([5]; C 40.86 μg/mL, age of the fungus 7 days): 43%
Inhibition value, I (%) ([5]; C 40.86 μg/mL, age of the fungus 9 days): 29%
EC50 [5]: 17.9 µg/mL
MBC [6]: > 500 µM
